Here are results for 14 compounds from patent publication US20030166202A1, “P450 Monooxygenases of the cyp79 family” (priority 2000, published 2003).

The structures appear in SMILES notation. Like-named read-outs stand apart in the source and are kept apart here.

The target in one data set is T1, CYP79A2 (Arabidopsis thaliana, UniProt Q9FLC8).
T1 sequence (Q9FLC8 7-529 limits assumed): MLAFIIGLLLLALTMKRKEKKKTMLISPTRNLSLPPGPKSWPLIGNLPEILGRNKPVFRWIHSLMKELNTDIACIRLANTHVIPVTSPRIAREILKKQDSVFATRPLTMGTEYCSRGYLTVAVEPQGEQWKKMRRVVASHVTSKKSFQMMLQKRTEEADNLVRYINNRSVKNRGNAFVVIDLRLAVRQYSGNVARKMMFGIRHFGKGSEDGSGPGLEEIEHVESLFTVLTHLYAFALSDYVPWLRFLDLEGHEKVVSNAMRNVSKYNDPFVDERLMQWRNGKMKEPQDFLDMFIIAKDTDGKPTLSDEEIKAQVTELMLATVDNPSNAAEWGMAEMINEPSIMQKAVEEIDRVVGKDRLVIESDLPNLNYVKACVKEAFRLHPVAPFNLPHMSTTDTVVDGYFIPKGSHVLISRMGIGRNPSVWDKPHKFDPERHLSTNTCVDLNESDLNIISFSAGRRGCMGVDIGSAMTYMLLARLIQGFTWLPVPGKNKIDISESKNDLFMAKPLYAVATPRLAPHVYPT
Nature of the data set: CYP79A2 activity in E. coli spheroplasts reconstituted with NADPH:cytochrome P450 oxidoreductase.

The target in the next data set is T2, CYP79B2 (Arabidopsis thaliana, UniProt O81346).
T2 sequence (O81346 1-541): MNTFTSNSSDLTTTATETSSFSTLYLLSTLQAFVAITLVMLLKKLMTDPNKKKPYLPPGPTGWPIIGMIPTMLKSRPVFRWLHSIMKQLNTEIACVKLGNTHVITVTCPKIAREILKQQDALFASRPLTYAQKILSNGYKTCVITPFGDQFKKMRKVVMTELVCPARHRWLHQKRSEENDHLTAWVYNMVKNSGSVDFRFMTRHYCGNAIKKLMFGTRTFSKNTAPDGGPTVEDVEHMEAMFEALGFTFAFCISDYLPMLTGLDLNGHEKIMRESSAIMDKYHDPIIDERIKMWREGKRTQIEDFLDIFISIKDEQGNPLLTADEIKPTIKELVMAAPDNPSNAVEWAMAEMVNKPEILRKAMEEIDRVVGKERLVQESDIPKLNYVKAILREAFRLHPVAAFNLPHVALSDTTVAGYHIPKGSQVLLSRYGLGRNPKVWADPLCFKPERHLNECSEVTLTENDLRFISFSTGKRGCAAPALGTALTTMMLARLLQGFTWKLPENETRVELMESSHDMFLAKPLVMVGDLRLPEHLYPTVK
Kind of data set: CYP79B2 activity in E. coli spheroplasts reconstituted with NADPH:cytochrome P450 reductase.

For another data set, the target named is CYP79F1 (Arabidopsis thaliana, UniProt Q949U1, M2A). The conditions noted are these: E. coli C43(DE3) spheroplasts, GC-MS or TLC. The protocol:
In a typical enzyme assay, 5 μl spheroplasts and 4 μl NADPH:cytochrome P450 reductase (equivalent to 0.04 units defined as 1 μmol cytochrome c/min) are incubated with substrate in buffer containing 30 mM KPi, pH 7.5, 3 mM NADPH, 3 mM reduced glutathione, 0.042% Tween 80, 1 mg ml^−1 L-α-dilauroylphosphatidylcholine in a total volume of 30 μl. Reaction mixtures containing spheroplasts of E. coli C43(DE3) transformed with empty vector are used as controls in all assays. 3.3 μM L-[U-^14C]phenylalanine (453 mCi/mmol; Pharmacia), 3.7 μM L-[U-^14C]tyrosine (449 mCi/mmol; Pharmacia), 0.1 mM L-[methyl-^14C]methionine (56 mCi/mmol; Pharmacia), and 24 μM L-[side chain-3-^14C]tryptophan (56.5 mCi/mmol; NEN) are tested as potential substrates. After incubation at 28° C. for 1 hour, half of the reaction mixture is analyzed by TLC on Silica Gel 60 F254 sheets (Merck) using toluene/ethyl acetate 5:1 (v/v) as eluent. Radiolabelled bands are visualized and quantified using a STORM 840 phosphoimager (Pharmacia). For GC-MS analysis, 450 μl reaction mixture containing 3.3 mM L-methionine (Sigma), 3.3 mM DL-dihomomethionine or 3.3 mM DL-trihomomethionine, respectively, are incubated for 4 hours at 25° C. and extracted with a total volume of 600 μl CHCl3. The organic phase is collected, evaporated, and the residue is dissolved in 15 μl CHCl3 and analyzed by GC-MS. […] An SGE column (BPX5, 25 m×0.25 mm, 0.25 μm film thickness) is used (heat pressure 100 kPa, splitless injection). The oven temperature program is as follows: 80° C. for 3 minutes, 80° C. to 180° C. at 5° C. min^−1, 180° C. to 300° C. at 20° C. min^−1, and 300° C. for 10 min. The ion source is run in EI mode (70 eV) at 200° C. […] DL-dihomomethionine, DL-trihomomethionine, 5-methylthiopentanaldoxime and 6-methylthiohexanaldoxime are synthesized as described (Dawson et al, J. Biol. Chem. 268: 27154-27159, 1993) and authenticated by NMR spectroscopy.

The test system of a further data set is cassava microsomes. Kind of data set: Metabolism of amino acids by cassava microsomes. Format: biochemical. The settings on record: amino acid as substrate.
The next data set addresses T3, CYP79D2 (Manihot esculenta, UniProt Q9M7B7).
T3 construct: made in house
The data set is classed as biochemical, cassava. The protocol: Investigations into the substrate specificity of CYP79D1, CYP79D2, CYP79E1, CYP79E2, CYP79A2, CYP79B2, CYP79B5 and CYP79F1 are carried out in E. coli spheroplasts reconstituted with sorghum NADPH-cytochrome P450 oxidoreductase in the presence of high amounts of lipids. L-α-dioleyl phosphatidyl choline and L-α-dilauroyl phosphatidyl choline are preferred lipids for the reconstitution. […] Depending on the nature of the substrate, substrate specificity may also be determined using intact P. pastoris cells or intact E. coli cells.
The ability of a P450 monooxygenase to convert an aliphatic or aromatic amino acid or chain-elongated methionine homologue to the corresponding oxime can be tested in an assay (see also example 5) comprising
a) incubating a reaction mixture comprising the P450 monooxygenase of the present invention or spheroplasts of E.coli cells expressing said enzyme, the parent amino acid, NADPH, oxygen, NADPH-cytochrome P450 oxidoreductase and lipid at ambient temperature for a certain period of time which is between 2 min and 2 to 6 hours;
b) terminating the reaction for example by the addition of a denaturing compounds such as ethyl acetate; and
c) chemically identifying and quantifying the aldoxime produced.

A further data set deals with CYP79D1 (Manihot esculenta, UniProt Q9M7B8). The conditions noted are these: for inhibition of CYP79D1 val-oxime formation: reconstitution in presence of inhibitor. The protocol: Isolated, recombinant CYP79D1 is reconstituted and its catalytic activity determined in vitro using reaction mixtures with a total volume of 30 μl containing 2.5 pmol CYP79D1, 0.05 U NADPH P450-oxidoreductase (Benveniste et al, Biochem J 235: 365-373, 1986), 10.6 mM L-α-dioleyl phosphatidylcholine, 0.35 μCi [U-^14C]-L-amino acid (L-Val, L-Ile, L-Leu, L-Tyr or L-Phe; Amersham, Sweden), 1 mM NADPH, 0.1 M NaCl and 20 mM KPi pH 7.9. In assays containing ^14C-L-valine or ^14C-L-isoleucine, different amounts of unlabeled L- and D-amino acids (0-6 mM) are added. After incubation for 10 minutes at 30° C. the products formed are extracted into 60 μl ethyl acetate and separated on TLC sheets (Merck Kieselgel 60F254) using n-pentane/diethyl ether (50:50, v/v) or toluene/ethyl acetate (5:1, v/v) as eluents for aliphatic compounds and aromatic compounds, respectively. ^14C-labeled oximes are visualized and quantified using a STORM 840 phosphor imager (Molecular Dynamics, CA, USA). The activity of CYP79D1 is additionally measured in the presence of the inhibitors tetcyclasis, ABT and DPI under the same conditions as described above. For in vivo activity assays 200 μl P. pastoris cells are pelleted and resuspended in 100 μl 50 mM Tricine pH 7.9 and 0.35 μCi [U-^14C]-L-valine or L-isoleucine. After incubation for 30 minutes at 30° C. the cells are extracted with ethyl acetate and the products formed are analyzed as above.
Sequence of CYP79D1 (Q9M7B8 2-542): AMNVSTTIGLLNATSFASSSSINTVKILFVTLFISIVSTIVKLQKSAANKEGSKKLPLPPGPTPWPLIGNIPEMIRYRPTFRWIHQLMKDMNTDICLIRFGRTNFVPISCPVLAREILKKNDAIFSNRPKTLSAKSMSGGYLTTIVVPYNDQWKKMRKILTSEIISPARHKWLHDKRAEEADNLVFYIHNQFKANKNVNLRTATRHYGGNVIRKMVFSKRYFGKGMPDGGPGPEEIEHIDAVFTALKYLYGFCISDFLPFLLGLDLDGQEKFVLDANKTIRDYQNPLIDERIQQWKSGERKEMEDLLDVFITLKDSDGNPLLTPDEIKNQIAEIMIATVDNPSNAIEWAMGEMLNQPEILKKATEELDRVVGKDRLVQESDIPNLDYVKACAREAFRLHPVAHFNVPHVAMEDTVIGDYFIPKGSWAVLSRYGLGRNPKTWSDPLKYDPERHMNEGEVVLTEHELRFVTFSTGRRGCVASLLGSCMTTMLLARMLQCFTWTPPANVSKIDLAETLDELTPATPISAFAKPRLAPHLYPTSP
CYP79D1 is reconstituted with sorghum NADPH-P450 oxidoreductase in the presence of high amounts of the lipid L-α-dioleyl phosphatidylcholine and 100 mM NaCl. […] To examine the effect of inhibitors on isolated CYP79D1, reconstitutions are performed in the presence of tetcyclasis, ABT and DPI using the same conditions as for cassava microsomes.

Sequence of CYP79F1 (Q949U1 whole entry M2A): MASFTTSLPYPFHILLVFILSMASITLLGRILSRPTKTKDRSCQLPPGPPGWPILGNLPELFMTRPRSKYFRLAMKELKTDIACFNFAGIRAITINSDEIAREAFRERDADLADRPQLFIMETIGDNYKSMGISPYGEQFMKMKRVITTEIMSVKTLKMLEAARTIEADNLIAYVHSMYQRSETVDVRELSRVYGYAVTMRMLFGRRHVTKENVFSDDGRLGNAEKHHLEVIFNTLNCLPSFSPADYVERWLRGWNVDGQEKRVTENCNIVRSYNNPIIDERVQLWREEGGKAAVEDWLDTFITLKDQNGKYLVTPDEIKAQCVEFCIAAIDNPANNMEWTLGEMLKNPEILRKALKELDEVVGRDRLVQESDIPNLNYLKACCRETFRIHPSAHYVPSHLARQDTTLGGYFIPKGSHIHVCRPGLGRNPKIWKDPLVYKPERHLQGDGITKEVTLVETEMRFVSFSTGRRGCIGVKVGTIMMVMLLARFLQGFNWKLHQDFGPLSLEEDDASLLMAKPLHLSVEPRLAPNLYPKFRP
T3 sequence (Q9M7B7 whole entry): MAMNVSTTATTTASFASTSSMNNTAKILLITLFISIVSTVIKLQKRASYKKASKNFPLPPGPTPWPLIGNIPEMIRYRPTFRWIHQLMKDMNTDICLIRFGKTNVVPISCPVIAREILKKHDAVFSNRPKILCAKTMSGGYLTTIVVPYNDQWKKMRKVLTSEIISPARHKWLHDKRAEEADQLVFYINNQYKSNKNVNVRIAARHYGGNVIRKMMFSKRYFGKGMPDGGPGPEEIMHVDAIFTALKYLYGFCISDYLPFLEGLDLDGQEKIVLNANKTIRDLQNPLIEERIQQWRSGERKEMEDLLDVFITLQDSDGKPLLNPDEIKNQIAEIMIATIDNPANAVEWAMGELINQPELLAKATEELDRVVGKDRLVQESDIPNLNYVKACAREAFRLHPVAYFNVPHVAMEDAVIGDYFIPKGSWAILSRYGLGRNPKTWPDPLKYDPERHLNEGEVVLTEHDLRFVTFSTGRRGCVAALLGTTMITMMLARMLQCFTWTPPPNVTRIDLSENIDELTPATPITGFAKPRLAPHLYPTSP
Method for CYP79B2: The activity of CYP79B2 is measured by reconstituting spheroplasts from E. coli expressing CYP79B2 with purified NADPH:cytochrome P450 reductase from Sorghum bicolor (L.) Moench. […] The reaction is incubated at 34° C. for 30 minutes, extracted two times with ethyl acetate and the ethyl acetate phase is analyzed by TLC using toluen:ethyl acetate 5:1 as eluent. Radiolabelled bands are visualized on a Storm 840 phosphorimager (Molecular Dynamics) and quantified with ImageQuant analysis software (Molecular Dynamics). Substrate specificity is investigated by substituting the ^14C-labelled tryptophan with ^14C-labelled tyrosine or phenylalanine. GC-MS is employed to verify the structure of the compound produced from tryptophan by recombinant CYP79B2. A 450 μl reaction mixture as described above containing 2 mM unlabelled tryptophan is incubated at 34° C. for 2 hours. The reaction mixture is extracted twice with 300 μl CHCl3 and lyophilized until dryness. GC-MS is performed with an HP5890 Series II gas chromatograph coupled to a Jeol JMS-AX505W mass spectrometer. Splitless injection on an SGE column (BPX5, 25 mm×0.25 mm, 0.25 μm film thickness) and a head pressure of 100 kPa are used.
Single colonies are grown overnight at 37° C. in LB medium containing 100 μg/ml ampicillin. 1 ml of the overnight culture is used to inoculate 75 ml TB medium containing 100 μg/ml ampicillin, 75 μg/ml δ-aminolevulinic acid, 1 mM thiamine and 1 mM IPTG. The TB cultures are grown for 44 hours at 125 rpm and 28° C.

As to `N[C@@H](CCC(=O)N[C@@H](CS)C(=O)NCC(=O)O)C(=O)O` [reduced glutathione], the “effect on aldoxime production” value at CYP79A2 (additive at final concentration 3 mM) is reported as “stimulates aldoxime production, but to a lesser extent”. Besides, at CYP79B2 (addition of 1.5 mM), the “increase of CYP79B2 activity” value stood at 1.8 fold.
`CSCCCCC(N)C(=O)O` (racemic) [DL-dihomomethionine]: the “formation of the corresponding aldoxime by CYP79F1” value (“formation … by CYP79F1” for short) on CYP79F1 was “two compounds, which are not present in the control reactions, are detected by GC-MS”.
Consider `CC[C@@H](C)[C@@H](N)C(=O)O` [D-isoleucine], for which the “metabolism / cyanide production by cassava microsomes” value (from here on “metabolism / cyanide production”) with cassava microsomes is on record as “no metabolism is observed”.
Consider `N[C@@H](Cc1ccccc1)C(=O)O` [L-phenylalanine], for which the “production of the respective aldoxime by CYP79A2” value (“production … by CYP79A2” for short) at CYP79A2 (TLC or GC-MS detection) is “produce two radiolabelled compounds which comigrate with the (E)- and (Z)-isomers of phenylacetaldoxime”. For the same compound, the “formation … by CYP79F1” value on CYP79F1 is “did not result in the formation of detectable amounts of the corresponding aldoximes”. For the same compound, the “conversion to the corresponding oxime by CYP79D2” value (from here on “conversion … by CYP79D2”) on CYP79D2 is listed as “Neither L-Leucine, L-phenylalanine nor L-tyrosine are metabolized”. Moreover, the “oxime production by CYP79B2” value at CYP79B2 (radiolabelled amino acid, TLC) is reported as “No oxime producing activity is detected”.
Consider `Clc1ccc(N2N=NC3C4CC(C5N=NC45)C32)cc1` (centres unmarked) [tetcyclasis, reference compound], for which, at CYP79D1, the “inhibition of CYP79D1 val-oxime formation” value is given as “inhibited”.
For `CC[C@H](C)[C@H](N)C(=O)O` [L-isoleucine], on CYP79D1, the “conversion rate relative to L-valine” value is “approximately 60%” and the “formation of the corresponding oxime / metabolism by CYP79D1” value is “corresponding oximes are formed”. For the same compound, on CYP79D2, the “conversion … by CYP79D2” value is given as “found to convert”. For the same compound, the “metabolism / cyanide production” value in the data set with cassava microsomes was “cyanide is produced”.
On to `Oc1ccc(Cl)cc1Cl` [2,4-dichlorophenol, reference compound], for which the “inhibition of CYP79B2 activity” value against CYP79B2 (100 mM H2O2, 1 mM MnCl2 or 800 μM 2,4-dichlorophenol added to reconstitution assay) is 72%.
`NC(CCc1ccccc1)C(=O)O` (racemic) [DL-homophenylalanine]: the “production … by CYP79A2” value on CYP79A2 is given as “absence of detectable amounts of the homophenylalanine-derived aldoxime”.
Turning to `CC(C)[C@H](N)C(=O)O` [L-valine], at CYP79D1, the “formation of the corresponding oxime / metabolism by CYP79D1” value is reported as “corresponding oximes are formed”. Moreover, at CYP79D2, the “conversion … by CYP79D2” value is given as “found to convert”. In addition, the “metabolism / cyanide production” value in the data set on cassava microsomes is listed as “cyanide is produced”.
`CSCCCCCC(N)C(=O)O` (racemic) [DL-trihomomethionine]: at CYP79F1, the “formation … by CYP79F1” value was “two compounds with retention times and fragmentation pattern identical with those of the E/Z-isomers of the synthetic 6-methylthiopentanaldoxime are detected”.
For the compound `c1ccc2c(c1)[I+]c1ccccc1-2` [DPI, reference compound], the “inhibition of CYP79D1 val-oxime formation” value at CYP79D1 is listed as “completely inhibits”.
As to `CCCCCCCC/C=C\CCCCCCCC(=O)OCCOCC(OCCO)C1OCC(OCCO)C1OCCO` (centres unmarked) [Tween 80], at CYP79A2 (additive at final concentration 0.083% (v/v)), the “increase in aldoxime production” value is 1.5 fold.
Regarding `CSCC[C@H](N)C(=O)O` [L-methionine], on CYP79A2, the “production … by CYP79A2” value was “does not result in production of detectable amounts of the respective aldoximes”. In addition, the “formation … by CYP79F1” value at CYP79F1 is on record as “did not result in the formation of detectable amounts of the corresponding aldoximes”.
`CC(C)[C@@H](N)C(=O)O` [D-valine]: on CYP79D1, the “binding to the active site of CYP79D1 (competition with 14C-L-valine)” value is recorded as “does not bind with high affinity” and the “formation of the corresponding oxime / metabolism by CYP79D1” value was “neither the cassava microsomes nor isolated CYP79D1 metabolize”. Further, the “metabolism / cyanide production” value in the data set on cassava microsomes is given as “no metabolism is observed”.
